Measured values: PubChem BioAssay AID2060887 (Molecular Pharmacology Branch, DTP, NCI, 2025)
pIC50: −log10 of the molar value.

Tested on: 782815-120-R-J1-PDC complex spheroid viability
Assay: Anticancer human tumor 782815-120-R-J1-PDC patient-derived colon adenocarcinoma cell line growth inhibition [RAS]
Details: for pIC50: curve of first compound; for viability, T/C: stronger effect = lower value
Method in brief: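 Agents were tested in combination matrices in half-log decrements from a top concentration at or near clinical Cmax (10 microM if undetermined). Targets were multi-cell spheroids of tumour lines plus HUVEC and MSC stromal cells.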
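Also: spheroids exposed to compounds for 7 days before reading.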
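For viability, T/C in this document: 100% = DMSO vehicle control viability.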

## CC(=O)OC12COC1CC(O)C1(C)C(=O)C(O)C3=C(C)C(OC(=O)C(O)C(NC(=O)OC(C)(C)C)c4ccccc4)CC(O)(C(OC(=O)c4ccccc4)C21)C3(C)C (centres undefined) + CCn1c(-c2cccnc2C(C)OC)c2c3cc(ccc31)N1CCOC(CC(NC(=O)C(C(C)C)N(C)C(=O)C3(F)CCN(C(=O)C#CC(C)(C)N(C)C)CC3)C(=O)N3CCCC(N3)C(=O)OCC(C)(C)C2)C1
Second compound 0.000949 µM
  pIC50: > 7.50
Second compound 0.003 µM
  pIC50: > 7.50
Second compound 0.00949 µM
  pIC50: > 7.50
Second compound 0.03 µM
  pIC50: > 7.50
Second compound 0.0949 µM
  pIC50: > 7.50
Second compound 0.3 µM
  pIC50: > 7.50
Second compound 0.000949 µM, first compound 0.0316 µM
  viability, T/C: 31.7%
Second compound 0.000949 µM, first compound 0.1 µM
  viability, T/C: 27.2%
Second compound 0.000949 µM, first compound 0.316 µM
  viability, T/C: 28.5%
Second compound 0.000949 µM, first compound 1 µM
  viability, T/C: 30.2%
Second compound 0.000949 µM, first compound 3.16 µM
  viability, T/C: 27.4%
Second compound 0.000949 µM, first compound 10 µM
  viability, T/C: 32.5%
Second compound 0.003 µM, first compound 0.0316 µM
  viability, T/C: 33.1%
Second compound 0.003 µM, first compound 0.1 µM
  viability, T/C: 26.5%
Second compound 0.003 µM, first compound 0.316 µM
  viability, T/C: 28.2%
Second compound 0.003 µM, first compound 1 µM
  viability, T/C: 32.6%
Second compound 0.003 µM, first compound 3.16 µM
  viability, T/C: 27.9%
Second compound 0.003 µM, first compound 10 µM
  viability, T/C: 30.2%
Second compound 0.00949 µM, first compound 0.0316 µM
  viability, T/C: 29%
Second compound 0.00949 µM, first compound 0.1 µM
  viability, T/C: 29.7%
Second compound 0.00949 µM, first compound 0.316 µM
  viability, T/C: 29.9%
Second compound 0.00949 µM, first compound 1 µM
  viability, T/C: 32.5%
Second compound 0.00949 µM, first compound 3.16 µM
  viability, T/C: 26.1%
Second compound 0.00949 µM, first compound 10 µM
  viability, T/C: 28.2%
Second compound 0.03 µM, first compound 0.0316 µM
  viability, T/C: 34.2%
Second compound 0.03 µM, first compound 0.1 µM
  viability, T/C: 29.4%
Second compound 0.03 µM, first compound 0.316 µM
  viability, T/C: 24%
Second compound 0.03 µM, first compound 1 µM
  viability, T/C: 27.7%
Second compound 0.03 µM, first compound 3.16 µM
  viability, T/C: 29.5%
Second compound 0.03 µM, first compound 10 µM
  viability, T/C: 27.7%
Second compound 0.0949 µM, first compound 0.0316 µM
  viability, T/C: 28.6%
Second compound 0.0949 µM, first compound 0.1 µM
  viability, T/C: 29.9%
Second compound 0.0949 µM, first compound 0.316 µM
  viability, T/C: 25.7%
Second compound 0.0949 µM, first compound 1 µM
  viability, T/C: 31.2%
Second compound 0.0949 µM, first compound 3.16 µM
  viability, T/C: 26%
Second compound 0.0949 µM, first compound 10 µM
  viability, T/C: 26.7%
Second compound 0.3 µM, first compound 0.0316 µM
  viability, T/C: 22.7%
Second compound 0.3 µM, first compound 0.1 µM
  viability, T/C: 27.9%
Second compound 0.3 µM, first compound 0.316 µM
  viability, T/C: 23.3%
Second compound 0.3 µM, first compound 1 µM
  viability, T/C: 21.9%
Second compound 0.3 µM, first compound 3.16 µM
  viability, T/C: 25.2%
Second compound 0.3 µM, first compound 10 µM
  viability, T/C: 24.4%

## CCc1c2c(nc3ccc(O)cc13)-c1cc3c(c(=O)n1C2)COC(=O)[C@]3(O)CC + CCn1c(-c2cccnc2C(C)OC)c2c3cc(ccc31)N1CCOC(CC(NC(=O)C(C(C)C)N(C)C(=O)C3(F)CCN(C(=O)C#CC(C)(C)N(C)C)CC3)C(=O)N3CCCC(N3)C(=O)OCC(C)(C)C2)C1
Second compound 0.000949 µM
  pIC50: 8.44
Second compound 0.003 µM
  pIC50: 8.40
Second compound 0.00949 µM
  pIC50: 8.40
Second compound 0.03 µM
  pIC50: 8.54
Second compound 0.0949 µM
  pIC50: 8.43
Second compound 0.3 µM
  pIC50: 8.49
Second compound 0.000949 µM, first compound 0.000949 µM
  viability, T/C: 84%
Second compound 0.000949 µM, first compound 0.003 µM
  viability, T/C: 56.1%
Second compound 0.000949 µM, first compound 0.00949 µM
  viability, T/C: 22.1%
Second compound 0.000949 µM, first compound 0.03 µM
  viability, T/C: 8.78%
Second compound 0.000949 µM, first compound 0.0949 µM
  viability, T/C: 2.94%
Second compound 0.000949 µM, first compound 0.3 µM
  viability, T/C: 1.62%
Second compound 0.003 µM, first compound 0.000949 µM
  viability, T/C: 89.9%
Second compound 0.003 µM, first compound 0.003 µM
  viability, T/C: 59.1%
Second compound 0.003 µM, first compound 0.00949 µM
  viability, T/C: 21.3%
Second compound 0.003 µM, first compound 0.03 µM
  viability, T/C: 9.28%
Second compound 0.003 µM, first compound 0.0949 µM
  viability, T/C: 4.83%
Second compound 0.003 µM, first compound 0.3 µM
  viability, T/C: 1.63%
Second compound 0.00949 µM, first compound 0.000949 µM
  viability, T/C: 86.5%
Second compound 0.00949 µM, first compound 0.003 µM
  viability, T/C: 59.2%
Second compound 0.00949 µM, first compound 0.00949 µM
  viability, T/C: 22.6%
Second compound 0.00949 µM, first compound 0.03 µM
  viability, T/C: 11.7%
Second compound 0.00949 µM, first compound 0.0949 µM
  viability, T/C: 3.57%
Second compound 0.00949 µM, first compound 0.3 µM
  viability, T/C: 1.64%
Second compound 0.03 µM, first compound 0.000949 µM
  viability, T/C: 91.9%
Second compound 0.03 µM, first compound 0.003 µM
  viability, T/C: 49.3%
Second compound 0.03 µM, first compound 0.00949 µM
  viability, T/C: 19%
Second compound 0.03 µM, first compound 0.03 µM
  viability, T/C: 10.1%
Second compound 0.03 µM, first compound 0.0949 µM
  viability, T/C: 4.83%
Second compound 0.03 µM, first compound 0.3 µM
  viability, T/C: 1.53%
Second compound 0.0949 µM, first compound 0.000949 µM
  viability, T/C: 82.5%
Second compound 0.0949 µM, first compound 0.003 µM
  viability, T/C: 57%
Second compound 0.0949 µM, first compound 0.00949 µM
  viability, T/C: 18.8%
Second compound 0.0949 µM, first compound 0.03 µM
  viability, T/C: 8.68%
Second compound 0.0949 µM, first compound 0.0949 µM
  viability, T/C: 5.21%
Second compound 0.0949 µM, first compound 0.3 µM
  viability, T/C: 1.73%
Second compound 0.3 µM, first compound 0.000949 µM
  viability, T/C: 86.1%
Second compound 0.3 µM, first compound 0.003 µM
  viability, T/C: 53%
Second compound 0.3 µM, first compound 0.00949 µM
  viability, T/C: 15.4%
Second compound 0.3 µM, first compound 0.03 µM
  viability, T/C: 8.17%
Second compound 0.3 µM, first compound 0.0949 µM
  viability, T/C: 2.87%
Second compound 0.3 µM, first compound 0.3 µM
  viability, T/C: 1.16%
